# Assay results taken from PMC7465886, “4-(N-Alkyl- and -Acyl-amino)-1,2,4-triazole-3-thione Analogs as Metallo-β-Lactamase Inhibitors: Impact of 4-Linker on Potency and Spectrum of Inhibition” (Biomolecules, 2020).
# Read-outs that look alike come from different tables or passages of the source.
# Legend:
# NDM-1 = NDM-1 (Klebsiella pneumoniae, UniProt C7C422); assay: MBL inhibition, reporter substrate method, NDM-1; assay type: biochemical
# Description: (§1) Compounds were prepared in DMSO at a final concentration of 50 mM prior to dilution in the assay buffer. The reaction rate was measured as the variation of absorbance observed upon substrate hydrolysis in a UV-Vis spectrophotometer or microplate reader at a wavelength of 300 nm (imipenem, meropenem), 260 nm (cefotaxime), or 482 nm (nitrocefin) and in the presence of a purified MBL enzyme (such as VIM-1, VIM-2, VIM-4, NDM-1, and IMP-1, at a final concentration ranging from 1 to 70 nM).
# (§2) These enzymes were overproduced in derivatives of E. coli BL21(DE3) carrying a pET-9 a (IMP-1, VIM-1, VIM-2, and VIM-4) or pET-15 b (NDM-1) vector into which the metallo-β-lactamase-encoding open reading frame was cloned. Bacterial strains were grown in the auto-inducing medium, ZYP-5052, supplemented with 50 μg/mL kanamycin for 24 h at 37 °C [38]. IMP-1, VIM-1, VIM-2, and VIM-4 were purified by ion-exchange and gel filtration chromatography using an AKTA Purifier platform (GE Healthcare, Uppsala, Sweden) as previously described. NDM-1 (residues 37-270) was produced as an amino-terminal 6 xHis-tag fusion protein and was purified using affinity chromatography. After growth for 26 h at 25 °C, bacterial cells were harvested by centrifugation (10,000× g, 30 min, 4 °C), resuspended in 10 mM HEPES buffer (pH 7.5) containing 0.15 M NaCl (buffer A) in one-fifth of the original culture volume, and lysed by sonication. Cellular debris was removed by centrifugation (12,000× g, 40 min, 4 °C). The clarified sample was loaded on a HisTrap HP column (bed volume, 5 mL; GE Healthcare), followed by a wash step (25 mL) with buffer A containing 20 mM imidazole. Proteins were eluted using buffer A containing 350 mM imidazole. The resulting protein sample was desalted (HiPrep 26/10 Desalting column, GE Healthcare) using 20 mM triethanolamine (pH 7.2) supplemented with 50 μM ZnSO4 and concentrated using an Amicon Ultra-15 (MW cut-off, 10 kDa; Millipore, Burlington, MA, USA). The concentrated sample was loaded on a Superdex 75 prep grade column (XK16/100 column; bed volume, 140 mL; GE Healthcare) and the proteins eluted with buffer A containing 50 μM ZnSO4. The active fractions were pooled and stored at −20 °C. The purity of the protein preparations was estimated >95% by SDS-PAGE analysis. The authenticity of the enzyme preparations was confirmed by electron spray ionization mass spectrometry, as previously described.
# (§3) The inhibition constants (Ki) were determined on the basis of a model of competitive inhibition by analyzing the dependence of the ratio v0/vi (v0, hydrolysis velocity in the absence of inhibitor; vi, hydrolysis velocity in the presence of inhibitor) as a function of [I] as already described. The slope of the plot of v0/vi vs. [I], which corresponds to Km^S/(Km^S + [S])Ki (where Km^S is the Km value of the reporter substrate and [S] its concentration in the reaction mixture) and allowed the calculation of the Ki value. Alternatively, a Dixon plot analysis was carried out by measuring the initial hydrolysis rates in the presence of variable concentrations of inhibitor and substrate. This allowed Ki values to be determined and supported the hypothesis that the various compounds behaved as competitive inhibitors of the various tested enzymes. The assays were performed in triplicate.
# IMP-1 = biological target: T1, IMP-1 (Serratia marcescens, UniProt P52699); assay: MBL inhibition, reporter substrate method, IMP-1; assay type: biochemical
# T1 construct: made in house; host or cells: E. coli BL21(DE3) derivative, pET-9a
# Description: as §1, §2, §3
# VIM-2 = biological target: T2, VIM-2 (Escherichia coli, UniProt Q5U7L7); assay: MBL inhibition, reporter substrate method, VIM-2; assay type: biochemical
# T2 construct: made in house; host or cells: E. coli BL21(DE3) derivative, pET-9a
# Description: as §1, §2, §3
# VIM-4 = biological target: T3, VIM-4 (Pseudomonas aeruginosa, UniProt A0A0F7KYQ8, S205R); assay: MBL inhibition, reporter substrate method, VIM-4; assay type: biochemical; settings: read-out: Percentage of Inhibition at 100 μM Inhibitor, VIM-4
# T3 construct: made in house; host or cells: E. coli BL21(DE3) derivative, pET-9a
# Description: as §1, §2, §3
# VIM-1 = biological target: T4, VIM-1 (Pseudomonas aeruginosa, UniProt A0A0F7KYQ8); assay: MBL inhibition, reporter substrate method, VIM-1; assay type: biochemical; settings: read-out: Inhibition of VIM-1 (dash)
# T4 construct: made in house; host or cells: E. coli BL21(DE3) derivative, pET-9a
# Description: as §1, §2, §3
# [1] = test system: E. coli LZ2310(pLBII-VIM-2); assay: microbe, parasite or virus in culture; assay type: cell-based, Escherichia coli; settings: 220 μg added to 30 μg cefoxitin disk (positive control)
# Description: The potential activity of selected compounds was assessed by the agar disk-diffusion method, according to the CLSI (Clinical Laboratory Standard Institute) recommendations, using Mueller–Hinton medium. The inhibitor (dissolved in DMSO) was added (maximum volume of 15 μL) to a commercially available disk containing a defined amount of a β-lactam antibiotic (30 μg of cefoxitin (Oxoid, Milan, Italy)). After incubation (18 h at 35 °C), the diameter of the growth inhibition zone was measured and compared to that obtained in the absence of inhibitor. DMSO and EDTA (220 μg) were used as negative and positive controls, respectively. Experiments were performed in triplicate.
# These tests were performed on an isogenic laboratory strain obtained after transforming Escherichia coli LZ2310 strain with a derivative of the high copy number plasmid pLB-II carrying the cloned blaVIM-2 gene harboring a cloned gene encoding the functional metallo-β-lactamase. Strain LZ2310 is a triple knockout mutant derived from K12 in which the genes encoding for components of the three major efflux pump systems were inactivated (genotype, ∆norE ∆mdfA N43 acrA1) and was used to generate an hyperpermeable background for MBL production and investigate the potential contribution of such mechanisms to inhibitor efflux.
# [2] = read-out: Inhibition of NDM-1 (dash in Ki column)
# [3] = read-out: Inhibition of IMP-1 (dash in Ki column)
# [4] = read-out: Inhibition of VIM-2 (dash in Ki column)
# [5] = read-out: Percentage of Inhibition at 100 μM Inhibitor, NDM-1 (dash)
# [6] = read-out: Percentage of Inhibition at 100 μM Inhibitor, IMP-1 (dash)
# [7] = read-out: Percentage of Inhibition at 100 μM Inhibitor, VIM-2 (dash)
# Sequence of NDM-1 (C7C422 37-270 limits assumed): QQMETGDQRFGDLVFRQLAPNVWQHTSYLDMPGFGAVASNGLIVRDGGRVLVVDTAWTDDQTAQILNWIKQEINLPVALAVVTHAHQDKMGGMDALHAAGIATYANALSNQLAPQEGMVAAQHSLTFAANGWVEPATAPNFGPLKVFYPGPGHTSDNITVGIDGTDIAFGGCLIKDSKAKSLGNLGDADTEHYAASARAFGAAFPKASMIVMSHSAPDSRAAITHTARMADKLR
# T1 sequence (P52699 19-246 limits assumed): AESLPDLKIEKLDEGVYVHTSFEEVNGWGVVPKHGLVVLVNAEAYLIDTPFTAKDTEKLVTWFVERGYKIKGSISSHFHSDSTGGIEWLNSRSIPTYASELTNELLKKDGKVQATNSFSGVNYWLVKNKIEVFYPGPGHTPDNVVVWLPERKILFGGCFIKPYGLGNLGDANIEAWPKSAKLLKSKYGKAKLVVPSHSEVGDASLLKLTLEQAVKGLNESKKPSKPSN
compound,measurement,setting,value
O=C(O)c1ccccc1CNn1c(-c2cc3ccccc3[nH]2)n[nH]c1=S [Compound 5],inhibition at 100 µM,NDM-1; [2],< 40%
same,inhibition at 100 µM,IMP-1; [3],< 40%
same,inhibition at 100 µM,VIM-2; [4],< 40%
O=C(O)c1ccccc1CNn1c(CCc2ccccc2)n[nH]c1=S [Compound 8],inhibition at 100 µM,NDM-1; [2],< 40%
same,inhibition at 100 µM,IMP-1; [3],< 40%
same,inhibition at 100 µM,VIM-2; [4],< 40%
O=[N+]([O-])c1ccccc1CNn1c(CCc2ccccc2)n[nH]c1=S [Compound 9],inhibition at 100 µM,NDM-1; [2],< 40%
same,inhibition at 100 µM,IMP-1; [3],< 40%
same,inhibition at 100 µM,VIM-2; [4],< 40%
O=C(O)c1ccc(CNn2c(CCc3ccccc3)n[nH]c2=S)cc1 [Compound 10],inhibition at 100 µM,NDM-1; [2],< 40%
same,inhibition at 100 µM,IMP-1; [3],< 40%
same,inhibition at 100 µM,VIM-2; [4],< 40%
O=C(O)c1ccccc1CNn1c(CC(c2ccccc2)c2ccccc2)n[nH]c1=S [Compound 11],Inhibition of NDM-1 (in words),NDM-1,moderately inhibited
same,Ki,"NDM-1; hydrazine series, read-out: Ki Value NDM-1",16.4 ± 2.6 µM
same,inhibition at 100 µM,IMP-1; [3],< 40%
same,inhibition at 100 µM,VIM-2; [4],< 40%
O=C(O)c1ccccc1CNn1c(COc2ccc3ccccc3c2)n[nH]c1=S [Compound 12],inhibition at 100 µM,NDM-1; [2],< 40%
same,inhibition at 100 µM,IMP-1; [3],< 40%
same,inhibition at 100 µM,VIM-2; [4],< 40%
O=C(O)c1ccccc1C(=O)Nn1c(-c2ccccc2)n[nH]c1=S [Compound 17],inhibition at 100 µM,NDM-1; [5],< 20%
same,inhibition at 100 µM,IMP-1; [6],< 20%
same,Ki,"VIM-2; hydrazine and hydrazide series, read-out: Ki Value VIM-2",> 100 µM
same,inhibition at 100 µM,VIM-2; [7],< 20%
O=C(O)c1ccccc1C(=O)Nn1c(Cc2ccccc2)n[nH]c1=S [Compound 18],inhibition at 100 µM,NDM-1; [5],< 20%
same,inhibition at 100 µM,IMP-1; [6],< 20%
same,inhibition at 100 µM,VIM-2; [7],< 20%
O=C(O)c1ccccc1C(=O)Nn1c(-c2cccc(-c3ccccc3)c2)n[nH]c1=S [Compound 19],inhibition at 100 µM,"NDM-1; read-out: Percentage of Inhibition at 100 μM Inhibitor, NDM-1",42%
same,inhibition at 100 µM,VIM-4,41%
same,inhibition at 100 µM,"IMP-1; read-out: Percentage of Inhibition at 100 μM Inhibitor, IMP-1",40%
same,inhibition at 100 µM,VIM-1,< 30%
same,inhibition at 100 µM,"VIM-2; read-out: Percentage of Inhibition at 100 μM Inhibitor, VIM-2",36%
O=C(O)CCC(=O)Nn1c(-c2cccc(-c3ccccc3)c2)n[nH]c1=S [Compound 20],inhibition at 100 µM,NDM-1; [5],< 20%
same,inhibition at 100 µM,IMP-1; [6],< 20%
same,inhibition at 100 µM,VIM-2; [7],< 20%
"O=C(O)CN(CCN(CC(=O)O)CC(=O)O)CC(=O)O [EDTA, reference compound]",Inhibition Zone Diameter,[1],28 mm
